Molecules are shown by their SMILES. Where a chain is given by its changes, count along the chain named. Where two headings read alike, the source gives them in different places. Some results are limits rather than exact numbers.

For assay [1], the target named is T1, HDAC8 Cys102Ser/Cys153Ser/Cys28Ser (Homo sapiens, UniProt Q9BY41, C102S/C153S/C28S).
T1 construct: made in house
T1 sequence (Q9BY41 1-377 C28S/C102S/C153S): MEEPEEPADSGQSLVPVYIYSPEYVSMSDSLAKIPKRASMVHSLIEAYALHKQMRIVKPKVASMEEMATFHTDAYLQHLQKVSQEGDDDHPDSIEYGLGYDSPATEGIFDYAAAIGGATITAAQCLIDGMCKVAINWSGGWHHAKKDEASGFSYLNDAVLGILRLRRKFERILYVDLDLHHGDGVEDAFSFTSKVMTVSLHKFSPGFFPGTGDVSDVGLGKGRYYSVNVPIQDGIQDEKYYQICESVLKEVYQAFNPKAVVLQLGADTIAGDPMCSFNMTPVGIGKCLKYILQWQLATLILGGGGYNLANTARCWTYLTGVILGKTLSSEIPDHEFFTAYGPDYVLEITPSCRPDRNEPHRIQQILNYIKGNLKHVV
As to the kind of experiment: HDAC8 mutant biochemical assay. The settings on record: read-out: IC50 [μM] @ 100 nM HDAC8: B Cys102Ser/Cys153Ser/Cys28Ser, 1 h preincubation. The method, then: (§1) HDAC8 mutant variants were generated, produced, and further purified as described previously.[32] Cysteines 28 and 314 were exchanged with serine using the following primer pairs: HD8_C28S_for, […]; HD8_C28S_rev, […]; HD8_C314S_for, […]; HD8_C314S_rev, […].
(§2) The enzyme activity assay was performed in assay buffer [25 mM Tris-HCl (pH 8.0), 50 mM NaCl, and 0.001% (v/v) Pluronic F-68] in black half-area 96-well microplates (Greiner Bio-One). For the initial screening, 10 nM HDAC8 was preincubated with the indicated compounds at 250 μM for 2 h at 30 °C. […] The reaction was initiated by the addition of 20 μM Boc-Lys(TFA)-AMC (Bachem). After substrate conversion at 30 °C for 15 min for HDAC8 and 1 h for HDAC8 mutants and HDAC4, the reaction was stopped by adding 1.67 μM suberoylanilide trifluoromethylketone (SATFMK). The deacetylated substrate was cleaved with 0.42 mg/mL trypsin to release fluorescent 7-amino-4-methylcoumarin (AMC), which was detected with a microplate reader (PHERAstar FS […]) with fluorescence excitation at 360 nm and emission at 460 nm. IC50 values were calculated by generating dose–response curves in GraphPad Prism 6 and fitting those to a four-parameter logistic model.

Another assay deals with THP-1 cells. As to the kind of experiment: CellTiter-Blue cell viability assay. Format: cell-based. The note with it: Homo sapiens, 72 h. The method, then: (§3) All cell lines were purchased from DSMZ (Braunschweig, Germany). The cell lines were regularly tested to exclude mycoplasma contamination and authenticated. […] Media were supplemented with 10% fetal calf serum (FCS), 10 units/mL penicillin, 10 μg/mL streptomycin, and 2 mM L-glutamine (all Gibco, Thermo Fisher Scientific).
(§4) To determine the IC50 of the selected compounds on the cell lines, the CellTiter-Blue cell viability assay (Promega) was performed. For this, cells were seeded in 96-well flat-bottom plates at a cell density of 10 000 cells/well. Cells were treated in triplicate with the compound of interest at various concentrations or with 10 μM Bortezomib (S1013; Selleck Chemicals, Houston, TX), as a positive control. […] Plates were measured using a GloMax plate reader (Promega), and IC50 values were determined by nonlinear regression using GraphPad Prism version 9.1.1 (GraphPad Software, Inc.), and the data are reported as mean values ± the standard error of the mean.

A further assay has as its system SET2 cells. The experiment in a line: CellTiter-Blue cell viability assay. The note with it: Homo sapiens, SET-2; 72 h, HDAC8-independent line, Figure 7B. The assay is classed as cell-based. The protocol: as §3, §4
On the technique in general: The colour change of resazurin is a common sign of viable cells or microbes.

Another assay has as its system HEL cells. As to the kind of experiment: CellTiter-Blue cell viability assay. The settings on record: Homo sapiens, 72 h, HDAC8-independent line, Figure 7B. Format: cell-based. The method, then:
as §3, §4

For another assay, the system named is HL60 cells. As to the kind of experiment: CellTiter-Blue cell viability assay. Format: cell-based. The settings on record: Homo sapiens, HL-60; 72 h, Figure 7A. The protocol:
All cell lines were purchased from DSMZ (Braunschweig, Germany). The cell lines were regularly tested to exclude mycoplasma contamination and authenticated. Cell lines were grown at 37 °C and 5% CO2 in RPMI 1640 medium (Gibco, Thermo Fisher Scientific). Media were supplemented with 10% fetal calf serum (FCS), 10 units/mL penicillin, 10 μg/mL streptomycin, and 2 mM L-glutamine (all Gibco, Thermo Fisher Scientific).
To determine the IC50 of the selected compounds on the cell lines, the CellTiter-Blue cell viability assay (Promega) was performed. For this, cells were seeded in 96-well flat-bottom plates at a cell density of 10 000 cells/well. Cells were treated in triplicate with the compound of interest at various concentrations or with 10 μM Bortezomib (S1013; Selleck Chemicals, Houston, TX), as a positive control. The cell viability of treated cell lines was measured using CellTiter-Blue after incubation for 72 h. Plates were measured using a GloMax plate reader (Promega), and IC50 values were determined by nonlinear regression using GraphPad Prism version 9.1.1 (GraphPad Software, Inc.), and the data are reported as mean values ± the standard error of the mean.

For another assay, the target named is T2, HDAC8 Cys153Ser mutant (Homo sapiens, UniProt Q9BY41, C153S).
T2 construct: made in house
T2 sequence (Q9BY41 whole entry C153S): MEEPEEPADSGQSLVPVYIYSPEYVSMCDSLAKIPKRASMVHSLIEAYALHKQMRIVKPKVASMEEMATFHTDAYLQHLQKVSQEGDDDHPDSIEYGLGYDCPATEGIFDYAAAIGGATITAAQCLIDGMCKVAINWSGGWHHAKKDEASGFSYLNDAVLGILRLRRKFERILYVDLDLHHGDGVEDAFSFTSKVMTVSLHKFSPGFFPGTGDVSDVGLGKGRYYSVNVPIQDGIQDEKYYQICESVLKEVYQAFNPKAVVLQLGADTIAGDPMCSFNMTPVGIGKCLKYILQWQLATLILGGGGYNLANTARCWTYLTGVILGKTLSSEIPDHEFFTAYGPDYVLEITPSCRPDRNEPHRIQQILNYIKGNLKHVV
As to the kind of experiment: HDAC8 mutant biochemical assay. The settings on record: preincubation 1 h. The method, then: as §1, §2

In a further assay the target is T3, HDAC8 (Homo sapiens, UniProt Q9BY41).
T3 construct: one additional N-terminal residue 'H' (His) (N)
T3 sequence (Q9BY41 1-377): T1 sequence (Q9BY41 1-377 C28S/C102S/C153S) with S28C, S102C, S153C
The experiment in a line: Kinetic parameters of inactivation from time-dependent IC50. The assay is classed as biochemical. The protocol: Time-dependent IC50 values were obtained using the previously described enzyme activity assay after varying preincubation times.

The test system of another assay is SMC3 acetylation. As to the kind of experiment: Western blot (immunoblot) in OCI-AML3 cells. The assay is classed as cell-based. The note with it: 72 h treatment. The protocol:
Cells (2 ×10^6) were seeded in 2 mL of medium in a six-well plate (Greiner) and treated with the desired concentration of the compounds. […] Protein concentrations were determined by the Bradford protein assay. Thirty micrograms of cell lysates per treatment was fractionated on sodium dodecyl sulfate–polyacrylamide gels and transferred to nitrocellulose membranes (Cytiva).
For orientation: Immunoblotting shows a protein as a band on a membrane.

`C[n+]1ccccc1I` [A3+]: the IC50 in assay [1] is over 130 µM.
Still for that read-out and setting: to `C[n+]1cncc(Br)c1` [F2+] belongs over 130 µM; to `C#Cc1cc[n+](C)cc1` [C6+], 67 ± 6 µM; to `C[n+]1cccnc1Cl` [D1+], over 130 µM.
The same measure, in the same setting: to `C[n+]1ccc(I)cc1` [C3+] belongs over 130 µM.
The term kinact/KI denotes the maximal inactivation rate divided by the concentration that gives half of it. By kinact is commonly meant the rate constant of inactivation at saturating inhibitor. As to `C#Cc1c[n+](C)ccc1NC(=O)CC(=O)N1Cc2ccccc2C1.[I-]` [compound 3, 3-Ethynyl-4-[3-(isoindolin-2-yl)-3-oxopropanamido]-1-methylpyridin-1-ium Iodide], the IC50 with THP-1 cells (Figure 7A, read-out: cell viability IC50, THP-1) is 46.5 µM; with THP-1 cells (HDAC8-independent line, Figure 7B, read-out: THP-1 IC50), 78.1 ± 32.8 µM; in the assay with SET2 cells, over 200 µM; with HEL cells it was over 200 µM; in the assay on HL60 cells it was 161 µM; at HDAC8 Cys153Ser mutant, 58.8 µM. Moreover, at HDAC8 (HDAC8), the inactivation efficiency (kinact/KI) was determined as 1570 M⁻¹ s⁻¹. At HDAC8 (HDAC8, inactivation constant), the Ki turned out to be 3.2 µM. Also, the kinact at HDAC8 (HDAC8, time-dependent IC50, Krippendorff approach) turned out to be 0.0051 s⁻¹. The “concentration inducing an increased level of SMC3 acetylation” value with SMC3 acetylation was 10 µM. The “effect on HDAC8 levels” value in the assay with SMC3 acetylation is given as “not influencing HDAC8 levels”.
Turning to `C[n+]1cccnc1Br` [D2+], the IC50 in assay [1] is over 130 µM.
Same read-out and setting: for `C[n+]1cccnc1I` [D3+] the value was 62 ± 3 µM; for `C#Cc1c[n+](C)ccn1` [G6+], 106 ± 10 µM.
For `C[n+]1cncc(I)c1` [F3+], the IC50 in assay [1] was over 130 µM.
On the same count and under the same terms, to `C#Cc1nccc[n+]1C` [D6+] belongs over 130 µM.
